Results as given in US20250353833A1, “DPP9 BINDING COMPOUNDS” (UNIVERSITEIT ANTWERPEN, priority 2022, published 2025).

Experiments:
DPP8 = DPP8 (Homo sapiens (Human), UniProt Q6V1X1); assay: DPP8 enzyme inhibition, IC50 measurement (Ala-Pro-pNA release); format: biochemical; details: Table 3; mean ± SD (n = 3); read-out: DPP8 IC50 ± SD
Description: (§1) IC50 measurements. […] The Magellan software was used to process the data, which was then fitted using a non-linear fit model in GraFit 7. […] As a blank, the assay buffer was used instead of the enzyme. Screening measurements were carried out in duplo and IC50 values were determined in triplo with at least eight different inhibitor concentrations as described by Van Goethem et al.

DPP9 = DPP9 (Homo sapiens (Human), UniProt Q86TI2); assay: DPP9 enzyme inhibition, IC50 measurement (Ala-Pro-pNA release); format: biochemical; details: Table 3; for IC50: mean ± SD (n = 3), read-out: DPP9 IC50 ± SD; for SI DPP9/8: selectivity index, DPP8 IC50 over DPP9 IC50
DPP9, sequence (Q86TI2 whole entry): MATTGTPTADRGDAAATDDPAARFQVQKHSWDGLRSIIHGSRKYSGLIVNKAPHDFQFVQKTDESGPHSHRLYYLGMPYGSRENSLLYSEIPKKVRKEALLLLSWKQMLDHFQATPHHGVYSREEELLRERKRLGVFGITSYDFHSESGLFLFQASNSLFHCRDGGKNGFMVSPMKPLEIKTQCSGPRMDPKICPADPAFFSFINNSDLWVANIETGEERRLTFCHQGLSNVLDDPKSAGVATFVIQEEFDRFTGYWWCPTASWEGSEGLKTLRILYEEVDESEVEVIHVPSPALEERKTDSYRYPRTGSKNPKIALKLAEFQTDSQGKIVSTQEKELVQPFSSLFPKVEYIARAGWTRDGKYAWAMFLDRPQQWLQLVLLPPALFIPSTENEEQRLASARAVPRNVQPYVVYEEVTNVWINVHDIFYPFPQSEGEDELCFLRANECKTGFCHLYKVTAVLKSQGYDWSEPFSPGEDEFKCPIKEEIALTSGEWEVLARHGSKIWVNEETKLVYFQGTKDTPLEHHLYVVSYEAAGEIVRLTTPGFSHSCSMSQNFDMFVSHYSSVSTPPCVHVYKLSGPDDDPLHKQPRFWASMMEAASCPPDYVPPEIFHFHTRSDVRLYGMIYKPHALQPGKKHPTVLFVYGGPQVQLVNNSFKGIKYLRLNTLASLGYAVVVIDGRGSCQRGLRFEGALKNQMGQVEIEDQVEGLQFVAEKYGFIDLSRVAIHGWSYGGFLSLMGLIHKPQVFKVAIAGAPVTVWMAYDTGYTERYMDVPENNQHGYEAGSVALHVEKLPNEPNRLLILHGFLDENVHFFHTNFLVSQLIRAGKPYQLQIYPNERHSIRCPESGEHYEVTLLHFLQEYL
Description: DPP4 was purified from human seminal plasma as described previously.^[3]
as §1

DPP8, sequence (Q6V1X1 whole entry): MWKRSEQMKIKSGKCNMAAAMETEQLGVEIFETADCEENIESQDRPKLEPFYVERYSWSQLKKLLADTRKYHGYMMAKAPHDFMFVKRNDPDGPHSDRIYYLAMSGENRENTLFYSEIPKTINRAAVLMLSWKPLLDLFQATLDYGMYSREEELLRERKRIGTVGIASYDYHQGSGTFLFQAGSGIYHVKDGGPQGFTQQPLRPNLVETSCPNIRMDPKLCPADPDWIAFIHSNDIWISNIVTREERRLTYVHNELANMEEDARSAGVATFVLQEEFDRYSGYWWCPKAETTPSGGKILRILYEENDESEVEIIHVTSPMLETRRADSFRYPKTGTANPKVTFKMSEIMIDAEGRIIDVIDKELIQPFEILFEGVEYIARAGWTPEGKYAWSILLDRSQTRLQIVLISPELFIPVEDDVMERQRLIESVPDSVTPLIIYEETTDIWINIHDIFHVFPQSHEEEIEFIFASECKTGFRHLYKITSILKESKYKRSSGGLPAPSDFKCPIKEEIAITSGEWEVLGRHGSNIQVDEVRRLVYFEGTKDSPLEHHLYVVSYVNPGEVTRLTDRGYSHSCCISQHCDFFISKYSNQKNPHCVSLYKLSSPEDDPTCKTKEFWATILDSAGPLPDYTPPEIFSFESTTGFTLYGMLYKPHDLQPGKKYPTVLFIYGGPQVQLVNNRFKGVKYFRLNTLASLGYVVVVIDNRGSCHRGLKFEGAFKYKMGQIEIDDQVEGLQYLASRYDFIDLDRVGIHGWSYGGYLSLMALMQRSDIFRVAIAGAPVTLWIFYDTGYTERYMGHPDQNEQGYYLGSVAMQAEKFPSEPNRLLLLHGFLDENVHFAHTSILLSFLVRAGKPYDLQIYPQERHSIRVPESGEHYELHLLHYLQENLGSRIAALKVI

SMILES | IC50 (DPP8) | IC50 (DPP9) | SI DPP9/8 (DPP9)
O=C(CNC12CC3CC(C1)CC(NCc1ccc(-c4ccccc4)cc1)(C3)C2)N1Cc2ccccc2C1 [Compound 27, 2-((3-(([1,1′-biphenyl]-4-ylmethyl)amino)adamantan-1-yl)amino)-1-(isoindolin-2-yl)ethan-1-one] | 1.54 ± 0.101 µM | 0.0932 ± 0.039 µM | 16.5
CC(C)(C)OC(=O)NC12CC3CC(CC(NCC(=O)N4Cc5ccccc5C4)(C3)C1)C2 [Compound 28, tert-butyl(3-((2-(isoindolin-2-yl)-2oxoethyl)amino)adamantan-1-yl)carbamate] | 1.14 ± 0.15 µM | 0.0367 µM | 31.7
O=C(NCCCCO)OC12CC3CC(CC(NCC(=O)N4Cc5ccccc5C4)(C3)C1)C2 [Compound 29, 3-((2-(isoindolin-2-yl)-2-oxoethyl)amino)adamantan-1-yl(4-hydroxybutyl)carbamate] | 2.6 ± 0.577 µM | 0.243 ± 0.107 µM | 10.7
O=C(NC(c1ccc(F)cc1)c1ccc(F)cc1)OC12CC3CC(CC(NCC(=O)N4Cc5ccccc5C4)(C3)C1)C2 [Compound 32, 3-((2-(isoindolin-2-yl)-2-oxoethyl)amino)adamantan-1-yl (bis(4-fluorophenyl)methyl)carbamate] | 0.667 ± 0.0311 µM | 0.0477 µM | 14.0
O=C(NC(c1ccccc1)c1ccccc1)OC12CC3CC(CC(NCC(=O)N4Cc5ccccc5C4)(C3)C1)C2 [Compound 33, 3-((2-(isoindolin-2-yl)-2-oxoethyl)amino)adamantan-1-yl benzhydrylcarbamate] | 0.175 ± 0.0331 µM | 0.0143 µM | 12.2
O=C(NCCCC[C@H](NC(=O)OC12CC3CC(CC(NCC(=O)N4Cc5ccccc5C4)(C3)C1)C2)C(=O)O)OCc1ccccc1 [Compound 34, N^6-((benzyloxy)carbonyl)-N^2-(((3-((2-(isoindolin-2-yl)-2-oxoethyl)amino)adamantan-1-yl)oxy)carbonyl)-L-lysine] | 0.0394 µM | 0.00174 µM | 22.5
O=C(N[C@H]1CC[C@H](O)CC1)OC12CC3CC(CC(NCC(=O)N4Cc5ccccc5C4)(C3)C1)C2 [Compound 35, 3-((2-(isoindolin-2-yl)-2-oxoethyl)amino)adamantan-1-yl ((1r,4R)-4-hydroxycyclohexyl)carbamate] | 0.399 ± 0.0388 µM | 0.0366 µM | 10.9
O=C(NCc1ccccc1)OC12CC3CC(CC(NCC(=O)N4Cc5ccccc5C4)(C3)C1)C2 [Compound 36, 3-((2-(isoindolin-2-yl)-2-oxoethyl)amino)adamantan-1-yl benzylcarbamate] | 1.15 ± 0.151 µM | 0.0738 µM | 15.6
O=C(NCc1ccncc1)OC12CC3CC(CC(NCC(=O)N4Cc5ccccc5C4)(C3)C1)C2 [Compound 37, 3-((2-(isoindolin-2-yl)-2-oxoethyl)amino)adamantan-1-yl (pyridin-4-ylmethyl)carbamate] | 1.11 ± 0.335 µM | 0.0908 ± 0.0135 µM | 12.2
O=C(NCCCc1ccccc1)OC12CC3CC(CC(NCC(=O)N4Cc5ccccc5C4)(C3)C1)C2 [Compound 38, 3-((2-(isoindolin-2-yl)-2-oxoethyl)amino)adamantan-1-yl (3-phenylpropyl)carbamate] | 1.01 ± 0.132 µM | 0.1 µM | 10.1
O=C(NCc1ccc(F)cc1F)OC12CC3CC(CC(NCC(=O)N4Cc5ccccc5C4)(C3)C1)C2 [Compound 39, 3-((2-(isoindolin-2-yl)-2-oxoethyl)amino)adamantan-1-yl (2,4-difluorobenzyl)carbamate] | 0.823 ± 0.185 µM | 0.0483 µM | 17.0
CC(C)(C)NC(=O)NC12CC3CC(CC(NCC(=O)N4Cc5ccccc5C4)(C3)C1)C2.Cl [Compound 40, 1-(tert-butyl)-3-(3-((2-(isoindolin-2-yl)-2-oxoethyl)amino)adamantan-1-yl)urea hydrochloride] | 1.05 ± 0.133 µM | 0.0518 ± 0.0157 µM | 20.3
O=C(NC12CC3CC(CC(C3)C1)C2)NC12CC3CC(CC(NCC(=O)N4Cc5ccccc5C4)(C3)C1)C2 [Compound 41, 1-(adamantan-1-yl)-3-(3-((2-(isoindolin-2-yl)-2-oxoethyl)amino)adamantan-1-yl)urea] | 0.592 ± 0.0877 µM | 0.0328 µM | 18.0
Cl.O=C(NCc1ccccc1)NC12CC3CC(CC(NCC(=O)N4Cc5ccccc5C4)(C3)C1)C2 [Compound 42, 1-benzyl-3-(3-((2-(isoindolin-2-yl)-2-oxoethyl)amino)adamantan-1-yl)urea hydrochloride] | 0.505 ± 0.0257 µM | 0.0378 ± 0.0133 µM | 13.4
N#Cc1ccc(CCC(=O)NC23CC4CC(CC(NCC(=O)N5Cc6ccccc6C5)(C4)C2)C3)cc1 [Compound 44, 3-(4-cyanophenyl)-N-(3-((2-(isoindolin-2-yl)-2-oxoethyl)amino)adamantan-1-yl)propanamide] | 0.638 ± 0.0464 µM | 0.032 µM | 19.9
CC(C)(C)OC(=O)NC12CC3CC(CC(NCC(=O)N4Cc5ccc(F)cc5C4)(C3)C1)C2 [Compound 46, tert-butyl (3-((2-(5-fluoroisoindolin-2-yl)-2-oxoethyl)amino)adamantan-1-yl)carbamate] | 0.824 ± 0.148 µM | 0.0143 µM | 57.6
NC12CC3CC(C1)CC(NCC(=O)N1Cc4ccc(F)cc4C1)(C3)C2 [Compound 47, 2-((3-aminoadamantan-1-yl)amino)-1-(5-fluoroisoindolin-2-yl)ethan-1-one bis(2,2,2-trifluoroacetate)] | 2.62 ± 0.394 µM | 0.259 ± 0.0358 µM | 10.1
CC(C)(C)NC(=O)NC12CC3CC(CC(NCC(=O)N4Cc5ccc(F)cc5C4)(C3)C1)C2 [Compound 48, 1-(tert-butyl)-3-(3-((2-(5-fluoroisoindolin-2-yl)-2-oxoethyl)amino)adamantan-1-yl)urea] | 0.369 ± 0.03 µM | 0.004 ± 0.001 µM | 85
CC(C)(C)OC(=O)NC12CC3CC(CC(NCC(=O)N4Cc5cc(F)c(F)cc5C4)(C3)C1)C2 [Compound 49] | 0.613 ± 0.154 µM | 0.0034 µM | 180.3
O=C(O)CNC(=O)OC12CC3CC(CC(NCC(=O)N4Cc5ccc(F)cc5C4)(C3)C1)C2 [Compound 53] | 1.74 ± 0.0591 µM | 0.0396 µM | 43.9
COc1ccc2c(c1)CN(C(=O)CNC13CC4CC(C1)CC(NC(=O)OC(C)(C)C)(C4)C3)C2 [Compound 59, tert-butyl (3-((2-(5-methoxyisoindolin-2-yl)-2-oxoethyl)amino)adamantan-1-yl)carbamate] | 5.22 ± 0.321 µM | 0.309 ± 0.0604 µM | 16.9
COC(=O)[C@H](Cc1c[nH]c2ccccc12)NC(=O)OC12CC3CC(CC(NCC(=O)N4Cc5ccc(F)cc5C4)(C3)C1)C2 [Compound 60, Methyl (((3-((2-(5-fluoroisoindolin-2-yl)-2-oxoethyl)amino)adamantan-1-yl)oxy)carbonyl)-L-tryptophanate] | 0.689 ± 0.0323 µM | 0.0438 µM | 15.7
COC(=O)[C@H](CCSC)NC(=O)OC12CC3CC(CC(NCC(=O)N4Cc5ccc(F)cc5C4)(C3)C1)C2 [Compound 61, Methyl (((-3-((2-(5-fluoroisoindolin-2-yl)-2-oxoethyl)amino)adamantan-1-yl)oxy)carbonyl)-L-methioninate] | 0.705 ± 0.076 µM | 0.0461 µM | 15.3
COC(=O)[C@H](C)NC(=O)OC12CC3CC(CC(NCC(=O)N4Cc5ccc(F)cc5C4)(C3)C1)C2 [Compound 62, Methyl (((3-((2-(5-fluoroisoindolin-2-yl)-2-oxoethyl)amino)adamantan-1-yl)oxy)carbonyl)-L-alaninate] | 1.29 ± 0.186 µM | 0.0938 ± 0.0173 µM | 13.8
CC12CC3CC(C)(C1)CC(NCC(=O)N1Cc4ccc(F)cc4C1)(C3)C2 [Compound 63, 2-((3,5-Dimethyladamantan-1-yl)amino)-1-(5-fluoroisoindolin-2-yl)ethan-1-one] | 4.78 ± 0.67 µM | 0.443 ± 0.168 µM | 10.8
O=C(CCCCC1SCC2NC(=O)NC21)NCCOCCOCCOCCNC(=O)NC12CC3CC(CC(NCC(=O)N4Cc5ccc(F)cc5C4)(C3)C1)C2 (stereo not drawn) [Compound 75, N-(1-((3-((2-(5-fluoroisoindolin-2-yl)-2-oxoethyl)amino)adamantan-1-yl)amino)-1-oxo-5,8,11-trioxa-2-azatridecan-13-yl)-5-(2-oxohexahydro-1H-thieno[3,4-d]imidazol-4-yl)pentanamide] | 0.495 ± 0.072 µM | 0.043 µM | 12
O=C1CCC(N2C(=O)c3cccc(NCCOCCOC(=O)NC45CC6CC(CC(NCC(=O)N7Cc8ccc(F)cc8C7)(C6)C4)C5)c3C2=O)C(=O)N1 (stereo not drawn) [Compound 76, 2-(2-((2-(2,6-Dioxopiperidin-3-yl)-1,3-dioxoisoindolin-4-yl)amino)ethoxy)ethyl (3-((2-(5-fluoroisoindolin-2-yl)-2-oxoethyl)amino)adamantan-1-yl)carbamate] | 0.008 µM | 0.0014 µM | 6
O=C1CCC(N2C(=O)c3cccc(NCCOCCNC(=O)NC45CC6CC(CC(NCC(=O)N7Cc8ccc(F)cc8C7)(C6)C4)C5)c3C2=O)C(=O)N1 (stereo not drawn) [Compound 77, 1-(2-(2-((2-(2,6-Dioxopiperidin-3-yl)-1,3-dioxoisoindolin-4-yl)amino)ethoxy)ethyl)-3-(3-((2-(5-fluoroisoindolin-2-yl)-2-oxoethyl)amino)adamantan-1-yl)urea] | 0.021 µM | 0.0024 µM | 9
